In patent publication US9426989B2 (priority 2010, dated 2016):

What was measured:
Assay type in all cases: cell-based
[1] = system: BK Polyoma virus; assay: Comparative data for inactivation with BPL: BK Polyoma virus; conditions: BPL 0.05%; 16 hours +2-8° C. (then 2 hours 37° C. for BPL hydrolysis)
[2] = system: Enteroviruses (Coxsackie virus, Echovirus); assay: Comparative data for inactivation with BPL: Enteroviruses; conditions: BPL 0.05%; 16 hours +2-8° C. (then 2 hours 37° C. for BPL hydrolysis)
[3] = system: Mammalian orthoreovirus, type 3 (strain Dearing, ATCC VR-824)

With `O=C1CCO1` [BPL, β-propiolactone] the LRV [1] was 2.1 and the LRV [2] was 4-5.
For `COO` [Inactivator 072, Methylhydroperoxide], the “Reduction (of reovirus titre)” value [3] was 0.9 log 10 and the “reovirus inactivation, in words” value [3] was “performed poorly”.
